How the values were obtained:
Type in all cases: cell-based
[1] = test system: Calu-1 cells; test: Anti-proliferation (viability) of NSCLC Calu-1 cells, 3 days (Table 7, FIG. 2B); details: Homo sapiens, 72 h; Calu-1 cells, 3 days, 10-point serial dilution; read-out: GI IC50 in Calu-1
Method in brief: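 Cells treated with heterobifunctional compounds in 10-point serial dilution, then viability measured; Calu-1 NSCLC cells exposed for 3 days, ER+ T47D breast cancer cells for 6 days.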

[2] = test system: MCF7 cells; test: Anti-proliferation (viability) of MCF7 cells (Table 7, FIG. 2B); details: Homo sapiens, MCF7, MCF7 cells, 3-6 days, 10-point serial dilution; read-out: GI IC50 in MCF-7
[3] = target: CDK4 (Homo sapiens, UniProt P11802+Q16531); test: HiBiT detection of HiBiT-tagged CDK4 protein level in MCF7 cells, 16 hours (Table 8); design: expressed in transfected cells; host or cells: MCF7; details: MCF7 cells stably expressing HiBiT tagged target proteins; for activity at 0.01 µM: 10 nM, read-out: % CDK4 Relative Level (10 nM); for activity at 0.1 µM: 100 nM, read-out: % CDK4 Relative Level (100 nM)
CDK4, sequence (P11802 whole entry): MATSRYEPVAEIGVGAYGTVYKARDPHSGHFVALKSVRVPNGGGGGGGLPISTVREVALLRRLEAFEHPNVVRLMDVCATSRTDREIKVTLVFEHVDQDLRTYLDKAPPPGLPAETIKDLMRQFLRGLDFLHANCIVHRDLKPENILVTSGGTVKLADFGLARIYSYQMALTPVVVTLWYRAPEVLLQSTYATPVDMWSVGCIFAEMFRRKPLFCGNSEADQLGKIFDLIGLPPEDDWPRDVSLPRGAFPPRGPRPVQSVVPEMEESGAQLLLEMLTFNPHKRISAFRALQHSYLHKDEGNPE
CDK4, sequence (P24385 whole entry partner): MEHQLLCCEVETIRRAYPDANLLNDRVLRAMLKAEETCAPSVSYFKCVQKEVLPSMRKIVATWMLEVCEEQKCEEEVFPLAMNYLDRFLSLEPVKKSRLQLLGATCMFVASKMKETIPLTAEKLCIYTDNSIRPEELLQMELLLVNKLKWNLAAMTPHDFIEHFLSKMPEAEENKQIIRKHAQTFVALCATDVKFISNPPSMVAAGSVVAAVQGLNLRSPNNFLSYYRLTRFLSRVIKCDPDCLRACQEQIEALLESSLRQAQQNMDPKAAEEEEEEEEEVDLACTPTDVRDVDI
CDK4, sequence (Q16531 2-1140 limits assumed): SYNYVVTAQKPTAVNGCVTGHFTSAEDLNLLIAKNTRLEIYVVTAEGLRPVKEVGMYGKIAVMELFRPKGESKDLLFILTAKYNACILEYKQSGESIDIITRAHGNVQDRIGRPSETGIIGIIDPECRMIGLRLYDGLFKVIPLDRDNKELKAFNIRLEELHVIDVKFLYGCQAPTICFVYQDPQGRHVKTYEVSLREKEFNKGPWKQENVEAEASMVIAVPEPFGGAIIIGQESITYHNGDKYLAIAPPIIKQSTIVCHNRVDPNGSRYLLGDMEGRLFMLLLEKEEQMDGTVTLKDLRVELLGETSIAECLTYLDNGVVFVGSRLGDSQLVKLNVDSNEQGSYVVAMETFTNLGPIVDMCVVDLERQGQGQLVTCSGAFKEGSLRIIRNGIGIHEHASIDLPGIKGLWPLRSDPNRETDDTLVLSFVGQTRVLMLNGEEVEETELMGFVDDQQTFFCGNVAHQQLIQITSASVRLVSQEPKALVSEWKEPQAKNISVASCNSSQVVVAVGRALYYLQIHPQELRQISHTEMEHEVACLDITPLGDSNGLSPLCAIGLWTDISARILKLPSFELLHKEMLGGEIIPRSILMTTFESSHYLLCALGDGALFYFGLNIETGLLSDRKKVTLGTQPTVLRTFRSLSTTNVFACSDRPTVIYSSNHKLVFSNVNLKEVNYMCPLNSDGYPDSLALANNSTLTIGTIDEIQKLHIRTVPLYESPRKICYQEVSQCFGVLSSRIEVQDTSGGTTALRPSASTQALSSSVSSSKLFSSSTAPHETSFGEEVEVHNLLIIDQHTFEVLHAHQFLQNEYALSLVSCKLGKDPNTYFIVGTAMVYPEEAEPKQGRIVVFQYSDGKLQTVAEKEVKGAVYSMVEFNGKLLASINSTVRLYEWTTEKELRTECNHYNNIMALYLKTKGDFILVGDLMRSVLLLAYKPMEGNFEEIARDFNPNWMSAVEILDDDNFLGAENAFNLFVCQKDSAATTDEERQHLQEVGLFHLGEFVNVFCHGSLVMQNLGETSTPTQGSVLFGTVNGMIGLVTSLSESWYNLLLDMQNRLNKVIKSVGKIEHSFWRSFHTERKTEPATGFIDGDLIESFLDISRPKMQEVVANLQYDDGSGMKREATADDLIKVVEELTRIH
Protocol: HiBiT detection system quantitatively measures total amounts of HiBiT-tagged proteins using a luminescent based method. MCF7 cells stably expressing HiBiT tagged target proteins were treated with heterobifunctional compounds at indicated concentrations for 16 hours, then lysed with Nano-Glo HiBiT Lytic detection reagents.

| SMILES | IC50 [1] | IC50 [2] | activity at 0.01 µM [3] | activity at 0.1 µM [3] |
| --- | --- | --- | --- | --- |
| CC(=O)c1c(C)c2cnc(Nc3ccc(N4CCN(C5CCN(C(=O)[C@H]6CC[C@H](Nc7nc(C(C)C)ccc7C(=O)Nc7ccc(N(C)C)nn7)CC6)C5)CC4)cn3)nc2n(C2CCCC2)c1=O (stereo partly drawn) [CPD-499, 2-((trans-4-(3-(4-(6-((6-acetyl-8-cyclopentyl-5-methyl-7-oxo-7,8-dihydropyrido[2,3-d]pyrimidin-2-yl)amino)pyridin-3-yl)piperazin-1-yl)pyrrolidine-1-carbonyl)cyclohexyl)amino)-N-(6-(dimethylamino)pyridazin-3-yl)-6-isopropylnicotinamide] | ≤ 10 nM | < 50 nM | > 85% | 55 to 85% |
| CC(=O)c1c(C)c2cnc(Nc3ccc(CN4CCN(CC(=O)NC5CCC(Nc6nc(NC(C)C)ccc6C(=O)Nc6ccc(N(C)C)nn6)C5)CC4)cn3)nc2n(C2CCCC2)c1=O (stereo not shown) [CPD-501, 2-((3-(2-(4-((6-((6-acetyl-8-cyclopentyl-5-methyl-7-oxo-7,8-dihydropyrido[2,3-d]pyrimidin-2-yl)amino)pyridin-3-yl)methyl)piperazin-1-yl)acetamido)cyclopentyl)amino)-N-(6-(dimethylamino)pyridazin-3-yl)-6-(isopropylamino)nicotinamide] | ≤ 10 nM | < 50 nM | > 85% | > 85% |
| CC(=O)c1c(C)c2cnc(Nc3ccc(N4CCN(CCC(=O)NC56CC(Nc7nc(NC(C)C)ccc7C(=O)Nc7ccc(N(C)C)nn7)(C5)C6)CC4)cn3)nc2n(C2CCCC2)c1=O [CPD-503, 2-((3-(3-(4-(6-((6-acetyl-8-cyclopentyl-5-methyl-7-oxo-7,8-dihydropyrido[2,3-d]pyrimidin-2-yl)amino)pyridin-3-yl)piperazin-1-yl)propanamido)bicyclo[1.1.1]pentan-1-yl)amino)-N-(6-(dimethylamino)pyridazin-3-yl)-6-(isopropylamino)nicotinamide] | ≤ 10 nM | < 50 nM | 55 to 85% | 55 to 85% |
| CC(=O)c1c(C)c2cnc(Nc3ccc(N4CCC(N(C)CC(=O)NC56CC(Nc7nc(NC(C)C)ccc7C(=O)Nc7ccc(N(C)C)nn7)(C5)C6)CC4)cn3)nc2n(C2CCCC2)c1=O [CPD-505, 2-((3-(2-((1-(6-((6-acetyl-8-cyclopentyl-5-methyl-7-oxo-7,8-dihydropyrido[2,3-d]pyrimidin-2-yl)amino)pyridin-3-yl)piperidin-4-yl)(methyl)amino)acetamido)bicyclo[1.1.1]pentan-1-yl)amino)-N-(6-(dimethylamino)pyridazin-3-yl)-6-(isopropylamino)nicotinamide] | ≤ 10 nM | < 50 nM | > 85% | > 85% |
| CC(=O)c1c(C)c2cnc(Nc3ccc(N4CCN(CCNC(=O)C56CC(Nc7nc(NC(C)C)ccc7C(=O)Nc7ccc(N(C)C)nn7)(C5)C6)CC4)cn3)nc2n(C2CCCC2)c1=O [CPD-506, 2-((3-((2-(4-(6-((6-acetyl-8-cyclopentyl-5-methyl-7-oxo-7,8-dihydropyrido[2,3-d]pyrimidin-2-yl)amino)pyridin-3-yl)piperazin-1-yl)ethyl)carbamoyl)bicyclo[1.1.1]pentan-1-yl)amino)-N-(6-(dimethylamino)pyridazin-3-yl)-6-(isopropylamino)nicotinamide] | ≤ 10 nM | < 50 nM | > 85% | > 85% |
| CC(=O)c1c(C)c2cnc(Nc3ccc(CN4CCN(CC(=O)N5CC6(CCC(Nc7nc(NC(C)C)ccc7C(=O)Nc7ccc(N(C)C)nn7)C6)C5)CC4)cn3)nc2n(C2CCCC2)c1=O (stereo not shown) [CPD-515, 2-((2-(2-(4-((6-((6-acetyl-8-cyclopentyl-5-methyl-7-oxo-7,8-dihydropyrido[2,3-d]pyrimidin-2-yl)amino)pyridin-3-yl)methyl)piperazin-1-yl)acetyl)-2-azaspiro[3.4]octan-6-yl)amino)-N-(6-(dimethylamino)pyridazin-3-yl)-6-(isopropylamino)nicotinamide] | ≤ 10 nM | < 50 nM | > 85% | > 85% |
| CC(=O)c1c(C)c2cnc(Nc3ccc(N4CCN(C5CCN(C(=O)[C@H]6CC[C@H](Nc7nc(NC(C)C)ccc7C(=O)Nc7cc8n(n7)CCC8)CC6)C5)CC4)cn3)nc2n(C2CCCC2)c1=O (stereo partly drawn) [CPD-520, 2-((trans-4-(3-(4-(6-((6-acetyl-8-cyclopentyl-5-methyl-7-oxo-7,8-dihydropyrido[2,3-d]pyrimidin-2-yl)amino)pyridin-3-yl)piperazin-1-yl)pyrrolidine-1-carbonyl)cyclohexyl)amino)-N-(5,6-dihydro-4H-pyrrolo[1,2-b]pyrazol-2-yl)-6-(isopropylamino)nicotinamide] | ≤ 10 nM | < 50 nM | > 85% | > 85% |
| CC(=O)c1c(C)c2cnc(Nc3ccc(N4CCN(CC(=O)N(C)CC56CC(Nc7nc(NC(C)C)ccc7C(=O)Nc7ccc(N(C)C)nn7)(C5)C6)CC4)cn3)nc2n(C2CCCC2)c1=O [CPD-525, 2-((3-((2-(4-(6-((6-acetyl-8-cyclopentyl-5-methyl-7-oxo-7,8-dihydropyrido[2,3-d]pyrimidin-2-yl)amino)pyridin-3-yl)piperazin-1-yl)-N-methylacetamido)methyl)bicyclo[1.1.1]pentan-1-yl)amino)-N-(6-(dimethylamino)pyridazin-3-yl)-6-(isopropylamino)nicotinamide] | ≤ 10 nM | < 50 nM | > 85% | > 85% |
| CC(=O)c1c(C)c2cnc(Nc3ccc(N4CCC5(CCN(CC(=O)N6CC7(CC(Nc8nc(NC(C)C)ccc8C(=O)Nc8cc9n(n8)CCC9)C7)C6)C5)C4)cn3)nc2n(C2CCCC2)c1=O (stereo not shown) [CPD-529, 2-((2-(2-(7-(6-((6-acetyl-8-cyclopentyl-5-methyl-7-oxo-7,8-dihydropyrido[2,3-d]pyrimidin-2-yl)amino)pyridin-3-yl)-2,7-diazaspiro[4.4]nonan-2-yl)acetyl)-2-azaspiro[3.3]heptan-6-yl)amino)-N-(5,6-dihydro-4H-pyrrolo[1,2-b]pyrazol-2-yl)-6-(isopropylamino)nicotinamide] | ≤ 10 nM | < 50 nM | > 85% | > 85% |
| [2H]C([2H])([2H])Nc1ccc(C(=O)Nc2cccc(OC)n2)c(NC2CC3(C2)CN(C(=O)CC(N2CCN(c4ccc(Nc5ncc6c(C)c(C(C)=O)c(=O)n(C7CCCC7)c6n5)nc4)CC2)C(F)(F)F)C3)n1 (stereo not shown) [CPD-531, 2-((2-(3-(4-(6-((6-acetyl-8-cyclopentyl-5-methyl-7-oxo-7,8-dihydropyrido[2,3-d]pyrimidin-2-yl)amino)pyridin-3-yl)piperazin-1-yl)-4,4,4-trifluorobutanoyl)-2-azaspiro[3.3]heptan-6-yl)amino)-N-(6-methoxypyridin-2-yl)-6-((methyl-d3)amino)nicotinamide] | ≤ 10 nM | < 50 nM | 55 to 85% | 55 to 85% |
| COc1cccc(NC(=O)c2ccc(NC(C)C)nc2NC2CC3(C2)CN(C(=O)CN2CCC4(CCN(c5ccc(Nc6ncc7c(C)c(C(C)=O)c(=O)n(C8CCCC8)c7n6)nc5)C4)C2)C3)n1 (stereo not shown) [CPD-532, 2-((2-(2-(7-(6-((6-acetyl-8-cyclopentyl-5-methyl-7-oxo-7,8-dihydropyrido[2,3-d]pyrimidin-2-yl)amino)pyridin-3-yl)-2,7-diazaspiro[4.4]nonan-2-yl)acetyl)-2-azaspiro[3.3]heptan-6-yl)amino)-6-(isopropylamino)-N-(6-methoxypyridin-2-yl)nicotinamide] | ≤ 10 nM | < 50 nM | 55 to 85% | 55 to 85% |
| COC1(C(=O)N2CCC(N3CCN(c4ccc(Nc5ncc6c(C)c(C(C)=O)c(=O)n(C7CCCC7)c6n5)nc4)CC3)C2)CCC(Nc2nc(NC(C)C)ccc2C(=O)Nc2ccc(N(C)C)nn2)CC1 (stereo not shown) [CPD-536, 2-((4-(3-(4-(6-((6-acetyl-8-cyclopentyl-5-methyl-7-oxo-7,8-dihydropyrido[2,3-d]pyrimidin-2-yl)amino)pyridin-3-yl)piperazin-1-yl)pyrrolidine-1-carbonyl)-4-methoxycyclohexyl)amino)-N-(6-(dimethylamino)pyridazin-3-yl)-6-(isopropylamino)nicotinamide] | ≤ 10 nM | < 50 nM | > 85% | 55 to 85% |
| CC(=O)c1c(C)c2cnc(Nc3ccc(N4CCN(C5CCN(C(=O)CC67CC(Nc8nc(NC(C)C)ccc8C(=O)Nc8ccc(N(C)C)nn8)(C6)C7)C5)CC4)cn3)nc2n(C2CCCC2)c1=O (stereo not shown) [CPD-537, 2-((3-(2-(3-(4-(6-((6-acetyl-8-cyclopentyl-5-methyl-7-oxo-7,8-dihydropyrido[2,3-d]pyrimidin-2-yl)amino)pyridin-3-yl)piperazin-1-yl)pyrrolidin-1-yl)-2-oxoethyl)bicyclo[1.1.1]pentan-1-yl)amino)-N-(6-(dimethylamino)pyridazin-3-yl)-6-(isopropylamino)nicotinamide] | ≤ 10 nM | < 50 nM | > 85% | > 85% |
